{"source": "patent US6300313A", "about": "“Means for treating prostate hypertrophy and prostate cancer” (ASTA Medica Aktiengesellschaft, priority 1999, dated 2001)", "key": {"BPH patients": {"system": "BPH patients", "conditions": "500 μg every 12 hours for 4 weeks, cited from earlier work"}, "BPH": {"system": "BPH", "assay": "Clinical therapy of BPH with Cetrorelix (Example 1)", "type": "in vivo, patients", "conditions": "Example 1 therapy regimen", "description": "Cetrorelix is administered in a dose of 0.5 mg to 2 mg daily for 4 to 8 weeks for the therapy of BPH. A dose of 5 mg to 30 mg, dispensed once per week or every 10 days also over a time period of 4 to 8 weeks as well as one every two weeks or one injection per month of 20 mg to 60 mg can also decisively improve the clinical symptoms and signs. […] The prostate volume decreases by 20 to 40% during the treatment time of 4 to 8 weeks. […] In addition, at least 30% of the patients achieve an improvement of the urine flow of 6 ml/sec with this therapy. This is almost equivalent to an improvement like that associated with the golden standard operation, and in considerably shorter time. […] These clinical benefits continue for at least 3 to 6 months after therapy. This allows a long-term therapy of BPH with only an intermittent treatment of 2 to max. 4 injection cycles over 4 to 8 weeks."}, "[1]": {"system": "Prostate carcinoma patients", "conditions": "cited from earlier work"}}, "note": "Non-standard residues stand in square brackets, D forms with d. Residues, ends and D or L forms follow the SMILES beside them. dPhe(4-Cl) = N[C@H](Cc1ccc(Cl)cc1)C(=O)O; d2Nal = N[C@H](Cc1ccc2ccccc2c1)C(=O)O; dCit = NC(=O)NCCC[C@@H](N)C(=O)O; d3Pal = N[C@H](Cc1cccnc1)C(=O)O", "data": [{"smiles": "CC(=O)N[C@H](Cc1ccc2ccccc2c1)C(=O)N[C@H](Cc1ccc(Cl)cc1)C(=O)N[C@H](Cc1cccnc1)C(=O)N[C@@H](CO)C(=O)N[C@@H](Cc1ccc(O)cc1)C(=O)N[C@H](CCCNC(N)=O)C(=O)N[C@@H](CC(C)C)C(=O)N[C@@H](CCCNC(=N)N)C(=O)N1CCC[C@H]1C(=O)N[C@H](C)C(N)=O", "note": "[Cetrorelix] (Ac-[d2Nal][dPhe(4-Cl)][d3Pal]SY[dCit]LRP[dA]-NH2)", "values": [{"measurement": "symptoms of dysuria and prostate volume", "setting": "BPH patients", "result": "distinct decrease"}, {"measurement": "testosterone levels, initially", "setting": "BPH patients; initial phase", "result": "lowering in testosterone levels to a castration level"}, {"measurement": "testosterone levels in the course of treatment", "setting": "BPH patients; no castration values during the last three weeks", "result": "fluctuated at subnormal levels"}, {"measurement": "quality of life", "setting": "BPH", "result": "significant improvements"}, {"measurement": "sexual performance", "setting": "BPH", "result": "No limitations in sexual performance are observed"}, {"measurement": "testosterone level", "setting": "BPH", "result": "Submaximal decreases of testosterone occur, but these are above those levels associated with castration"}, {"measurement": "increase of the peak flow of the urine", "setting": "BPH; 4 to 8 weeks", "result": "approximately 3 ml/sec"}, {"measurement": "patients achieving an improvement of the urine flow of 6 ml/sec", "setting": "BPH; 4 to 8 weeks", "result": "at least 30%"}, {"measurement": "testosterone levels, initially", "setting": "[1]; 500 μg every 12 hours for 6 weeks, initial phase", "result": "lowering in testosterone levels to a castration level"}, {"measurement": "overall condition of the patient", "setting": "[1]; end of the 6 weeks of therapy", "result": "considerable improvement"}, {"measurement": "testosterone values at the end of therapy", "setting": "[1]; end of the 6 weeks of therapy", "result": "castration levels"}]}]}
